Assays:
[1] = Solubility in ethanol or Tween 80; assay type: physicochemical
BxPC-3 cells = assay: Anti-proliferative activity, MTT assay, BxPC-3 cells; assay type: cell-based, human; conditions: Bx-PC3 cells
Method: The anti-proliferative activity of Gem-DHA was evaluated in Panc-02, TC-1, Panc-1-Luc, and BxPC-3 cell lines. For Panc-02 and TC-1 cells, cells (1,500/well for Panc-02 and 3,000/well for TC-1) were seeded in 96-well plates and incubated at 37° C. and 5% CO2 overnight. The cells were then treated with various concentrations of Gem-DHA or other compounds for 24 h. For BxPC-3 and Panc-1-Luc cells, 3,000 and 1,000 cells/well were used, respectively, and cells were co-incubated with the Gem-DHA for 72 h. Cell viability was determined using an MTT assay as previously described (Naguib YW et al. Mol Pharm. 2014, 11(4), 1239-1249). Gemcitabine HCl was dissolved in cell culture medium, whereas Gem-DHA and DHA were dissolved in dimethylsulfoxide (DMSO). The values of IC50 were calculated using GraphPad Prism (GraphPad software, Inc., La Jolla, CA).

Panc-02 tumor cells = assay: Cytotoxicity after 4 h co-incubation, MTT test; assay type: cell-based, mouse; conditions: Panc-02 cells, at 60 μM
Method: The mechanisms underlying the cytotoxicity of the Gem-DHA may be different from that of gemcitabine. For example, in cell culture studies, Panc-02 cells were seeded into 96-well plates (1,500 cells per well) and incubated at 37° C., 5% CO2 for 24 h. They were then co-incubated with various concentrations of Gem-DHA, gemcitabine HCl alone, or DHA alone for 4 h, and cell viability was determined using an MTT test.

Panc-1-Luc tumors = assay: Antitumor activity against orthotopic Panc-1-Luc tumors in nude mice, with tumor histology; assay type: in vivo
Description: Nude mice with intrapancreatically injected Panc-1-Luc human pancreatic cancer cells were used as a mouse model of pancreatic cancer. The National Institutes of Health guidelines for animal use and care were followed Animal protocols were approved by the Institutional Animal Care and Use Committee at the University of Texas at Austin. Panc-1-Luc cells (Muniz VP et al. Mol Cancer Res. 2011, 9(7), 867-877) were implanted orthotopically by injecting 1×10^6 cells into (the tail of) the pancreas.
Panc-1-Luc cell suspension was prepared at a concentration of 2×10^7 per ml in a 1:1 (v/v) mixture of DMEM and Matrigel. Tumor cells were then injected into the pancreas of male athymic nude mice (6-8 weeks, Charles River Laboratories, Wilmington, Mass.) following a surgical procedure (Raut CP et al. Cancer Biol Ther. 2004, 3(12), 1217-1224; Bruns CJ et al. Neoplasia. 1999, 1(1), 50-62). Briefly, after mice were anesthetized using isoflurane, the skin and peritoneum were cut open about 1 cm in length using sterile surgical scalpels. The pancreas was pulled out, and 50 μL of the cell suspension were injected slowly until a small bleb was formed. After the needle was withdrawn, a small cotton plug was applied for 10 s. The pancreas was returned back, the peritoneum was sutured with Monocryl™ bioresorbable sutures (Ethicon, Somerville, N.J.), and the skin was then closed using surgical clips. Mice were s.c. injected with buprenorphine (0.1 mg/kg) as a pain killer and were left to heal for one week. Tumor progress was monitored using an IVIS™ Spectrum imaging system (Caliper, Hopkinton, MA). For IVIS imaging, each mouse was i.p. injected with a luciferin solution (15 mg/ml) at a dose of 0.15 mg/g body weight in sterile DPBS, anesthetized with isoflurane, and imaged 10 min after luciferin injection. Four weeks after tumor implantation, mice with tumors were randomized into 3 groups (n=5-7) and intraperitoneally injected (i.p) with Gem-DHA (50 mg/kg, ˜0.087 mmole/kg), gemcitabine HCl (26.1 mg/kg, ˜0.087 mmole/kg), or left untreated. Gem-DHA was in a Tween 80/ethanol/water solution with 5% (w/v) of mannitol, and gemcitabine HCl was in sterile mannitol solution (5%, w/v). Treatments were repeated twice a week for a total 7 doses. Thirty days after the first treatment, mice were sacrificed and tumors were dissected from the pancreas, weighed, and fixed in formalin. The doses were based on the average weight of mice in the same group on the day of injection, and were adjusted only if the weight of an individual mouse was above or below 10% of the average weight.
Tumor tissues were sectioned and stained in the Histology and Tissue Analysis Core at Dell Pediatric Research Institute at the University of Texas at Austin or in the Department of
Molecular Carcinogenesis at the University of Texas M.D. Anderson Cancer Center at Science Park (Smithville, Texas) with hematoxylin & eosin (H&E), antibodies against cleaved lamin-A (apoptosis marker), CD-31 (angiogenesis marker), or Ki-67 (proliferation marker). Slides were then scanned, and images were taken using the ScanScope XT (Aperio Technologies, Vista, CA). […] In addition, several areas of necrosis can also be seen in the centers of the tumors. […] Several pyknotic cells with condensed chromatin can also be seen in tumors in mice that were treated with Gem-DHA.

CC/C=C\C/C=C\C/C=C\C/C=C\C/C=C\C/C=C\CCC(=O)Nc1ccn(C2OC(CO)C(O)C2(F)F)c(=O)n1 (centres unmarked) [Gem-DHA, 4-(N)-Docosahexaenoyl Difluorodeoxycytidine]
Solubility in ethanol or Tween 80 [1]: freely soluble | Fold by which IC50 is smaller than that of gemcitabine HCl (BxPC-3 cells): 1.8×10^5 fold | Cytotoxicity after 4 h of co-incubation (Panc-02 tumor cells): significant cytotoxicity | H&E histology of tumor tissue (Panc-1-Luc tumors; compared with tumors of untreated mice): less densely packed cancer cells | Inhibition of growth of Panc-1-Luc tumors (Panc-1-Luc tumors; i.p., ~0.087 mmole/kg (Gem-DHA 50 mg/kg, gemcitabine HCl 26.1 mg/kg), twice a week, 7 doses): more effective than the molar equivalent dose of gemcitabine HCl | Percent of Ki-67 positive cells in tumors (Panc-1-Luc tumors; versus mice treated with gemcitabine HCl): significantly lower percent of Ki-67 positive cells | Cleaved lamin-A positive staining in tumors (Panc-1-Luc tumors; versus untreated mice): significantly higher percent of positive staining | Micro-vessel density (MVD) in tumors, anti-CD-31 staining (Panc-1-Luc tumors; versus untreated mice): significantly lower than in mice that were not treated

Source: patent US11883423B2, “Nucleobase analogue derivatives and their applications” (BOARD OF REGENTS, THE UNIVERSITY OF TEXAS SYSTEM, priority 2014, dated 2024)
